Assays:
Assay in all cases: Test A pre-/postemergence plant response
Assay type in all cases: in vivo
Conditions in all cases: 0 to 100 scale, 0 is no effect, 100 is complete control
[1] = tested on: sorghum (Sorghum vulgare)
Excerpt: (§1) Seeds of plant species selected from downy bromegrass (Bromus tectorum), cocklebur (common cocklebur, Xanthium strumarium), wild oat (Avena fatua), barnyardgrass (Echinochloa crus-galli), large (Lg) crabgrass (Digitaria sanguinalis), giant foxtail (Setaria faberii), morningglory (Ipomoea spp.), velvetleaf (Abutilon theophrasti), and sorghum (Sorghum vulgare) were planted into a sandy loam soil and treated preemergence by soil drench using test a chemical formulated in a non-phytotoxic solvent mixture which included a surfactant. At the same time these species were also treated postemergence sprayed to runoff using a test chemical formulated in the same manner. Plants ranged in height from 2 to 18 cm and were in the one- to two-leaf stage for the postemergence treatment. Treated plants and untreated controls were maintained in a greenhouse for approximately 11 days, after which time all treated plants were compared to untreated controls and visually evaluated for injury. Plant response ratings, summarized in Table A, are based on a 0 to 100 scale where 0 is no effect and 100 is complete control. A dash (-) response means no test result.

wild oat (Avena fatua) = tested on: wild oat (Avena fatua)
Excerpt: as §1

[2] = tested on: large (Lg) crabgrass (Digitaria sanguinalis)
Excerpt: as §1

[3] = tested on: velvetleaf (Abutilon theophrasti)
Excerpt: as §1

[4] = tested on: giant foxtail (Setaria faberii)
Excerpt: as §1

[5] = tested on: cocklebur (common cocklebur, Xanthium strumarium)
Excerpt: as §1

[6] = tested on: barnyardgrass (Echinochloa crus-galli)
Excerpt: as §1

[7] = tested on: downy bromegrass (Bromus tectorum)
Excerpt: as §1

[8] = tested on: morningglory (Ipomoea spp.)
Excerpt: as §1

[9] = 1000 g ai/ha, Post Sprayed to Runoff

## Cc1ccc(Oc2ncc(Cl)cn2)c(-c2cccc(C(F)(F)F)c2)c1 [Compound 39]
[1]; [9]
  Plant response rating, Sorghum: 30
[1]; 2000 g ai/ha, Pre Soil Drench
  Plant response rating, Sorghum: 50
Wild oat (Avena fatua); [9]
  Plant response rating, Oat, Wild: 20
Wild oat (Avena fatua); 2000 g ai/ha, Pre Soil Drench
  Plant response rating, Oat, Wild: 90
[2]; [9]
  Plant response rating, Crabgrass, Large: 50
[2]; 2000 g ai/ha, Pre Soil Drench
  Plant response rating, Crabgrass, Large: 90
[3]; [9]
  Plant response rating, Velvetleaf: 60
[3]; 2000 g ai/ha, Pre Soil Drench
  Plant response rating, Velvetleaf: 70
[4]; [9]
  Plant response rating, Foxtail, Giant: 30
[4]; 2000 g ai/ha, Pre Soil Drench
  Plant response rating, Foxtail, Giant: 100
[5]; [9]
  Plant response rating, Cocklebur: 40
[5]; 2000 g ai/ha, Pre Soil Drench
  Plant response rating, Cocklebur: 0
[6]; [9]
  Plant response rating, Barnyardgrass: 50
[6]; 2000 g ai/ha, Pre Soil Drench
  Plant response rating, Barnyardgrass: 90
[7]; [9]
  Plant response rating, Bromegrass, Downy: 20
[7]; 2000 g ai/ha, Pre Soil Drench
  Plant response rating, Bromegrass, Downy: 70
[8]; [9]
  Plant response rating, Morningglory: 30
[8]; 2000 g ai/ha, Pre Soil Drench
  Plant response rating, Morningglory: 0

Source: patent US10131652B2, “Pyrimidinyloxy benzene derivatives as herbicides” (E. I. DU PONT DE NEMOURS AND COMPANY, priority 2014, dated 2018)
